System: Huh-7 cells
Test: alamarBlue cell viability (metabolic activity) assay
Assay type: cell-based
Conditions: analogous experiments, FIG. 10
Description: The Huh-7 human liver cell line was used.
After 24 h exposure with compounds 7 or 17, the conditioned medium was removed from the cells and used for the LDH leakage assay (see below). Freshly prepared alamarBlue cell viability reagent (Invitrogen, diluted 1:10 in CCM) was added, followed by incubation for 3 h at 37° C. and 5% CO2. The resulting resorufin fluorescence was read using an Optima Fluostar plate reader (BMG Labtech) Ex: 544 nm/Em: 590 nm. Dimethyl sulfoxide 5% and CCM alone (i.e. compounds 7 and 17 0 μM) were used as positive and negative controls for cell death, respectively.

N#Cc1ccc2c(c1)Nc1ncnc3c1c-2cn3[C@@H]1O[C@H](COP(=O)(O)O)[C@@H](O)[C@H]1O [7a, ((2R,3S,4R,5R)-5-(8-cyano-2,3,5,6-tetraazaaceanthrylen-2(6H)-yl)-3,4-dihydroxytetrahydrofuran-2-yl)methyl dihydrogen phosphate]
toxicity (cytotoxicity assessment, monophosphate): non-toxic

— patent US20240209016A1, “FLUORESCENT NUCLEOSIDE PHOSPHATES” (STEALTH LABELS BIOTECH AB, priority 2021, published 2024)
